Laboratory results: PMC10997755, “Discovery of a small-molecule inhibitor that traps Polθ on DNA and synergizes with PARP inhibitors” (Nature Communications, 2024)

Assays:
Polγ = molecular target: T1, Polγ (Homo sapiens, UniProt P54098); assay: Primer extension by recombinant Pols (selectivity); type: biochemical
T1 construct: gift: Dr. Copeland (NIEHS)
T1 sequence (P54098 1-1239): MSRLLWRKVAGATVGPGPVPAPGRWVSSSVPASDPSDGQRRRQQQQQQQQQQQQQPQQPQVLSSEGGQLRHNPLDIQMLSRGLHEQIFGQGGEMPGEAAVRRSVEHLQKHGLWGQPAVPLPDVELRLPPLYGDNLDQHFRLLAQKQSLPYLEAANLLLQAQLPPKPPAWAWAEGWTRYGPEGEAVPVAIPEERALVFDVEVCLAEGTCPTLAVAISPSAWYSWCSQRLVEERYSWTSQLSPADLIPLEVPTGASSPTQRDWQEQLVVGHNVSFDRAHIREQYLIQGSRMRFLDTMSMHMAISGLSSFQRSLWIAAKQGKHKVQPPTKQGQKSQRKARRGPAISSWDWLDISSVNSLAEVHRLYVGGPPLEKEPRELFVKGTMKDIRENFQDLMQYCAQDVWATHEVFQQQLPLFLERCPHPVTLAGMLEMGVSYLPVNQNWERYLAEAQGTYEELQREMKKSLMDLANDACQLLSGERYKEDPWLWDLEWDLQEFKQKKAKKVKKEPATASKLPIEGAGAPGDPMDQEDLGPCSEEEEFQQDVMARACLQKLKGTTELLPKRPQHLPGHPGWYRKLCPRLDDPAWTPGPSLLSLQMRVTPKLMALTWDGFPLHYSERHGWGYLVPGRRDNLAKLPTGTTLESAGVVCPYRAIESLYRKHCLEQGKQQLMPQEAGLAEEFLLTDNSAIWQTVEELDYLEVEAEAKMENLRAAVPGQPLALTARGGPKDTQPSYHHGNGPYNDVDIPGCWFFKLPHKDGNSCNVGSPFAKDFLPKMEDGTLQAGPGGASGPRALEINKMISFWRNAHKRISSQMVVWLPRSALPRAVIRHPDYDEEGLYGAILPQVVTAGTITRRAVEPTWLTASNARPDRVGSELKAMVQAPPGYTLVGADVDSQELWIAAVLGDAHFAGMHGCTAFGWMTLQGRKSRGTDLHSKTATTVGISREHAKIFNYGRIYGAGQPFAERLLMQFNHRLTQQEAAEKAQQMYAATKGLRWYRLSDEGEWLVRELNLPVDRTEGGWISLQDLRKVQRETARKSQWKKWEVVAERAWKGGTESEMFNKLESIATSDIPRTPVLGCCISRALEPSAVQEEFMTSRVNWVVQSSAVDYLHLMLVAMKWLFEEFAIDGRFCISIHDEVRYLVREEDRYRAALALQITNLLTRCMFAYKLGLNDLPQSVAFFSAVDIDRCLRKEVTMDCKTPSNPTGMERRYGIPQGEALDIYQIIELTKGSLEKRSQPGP

Polθ-pol = molecular target: T2, Polθ-pol (Homo sapiens, UniProt O75417); assay: MMEJ in vitro assay; type: biochemical
T2 construct: purified recombinant human Polθ-pol (comprising amino acid residues 1792–2590); made in house
T2 sequence (O75417 1792-2590): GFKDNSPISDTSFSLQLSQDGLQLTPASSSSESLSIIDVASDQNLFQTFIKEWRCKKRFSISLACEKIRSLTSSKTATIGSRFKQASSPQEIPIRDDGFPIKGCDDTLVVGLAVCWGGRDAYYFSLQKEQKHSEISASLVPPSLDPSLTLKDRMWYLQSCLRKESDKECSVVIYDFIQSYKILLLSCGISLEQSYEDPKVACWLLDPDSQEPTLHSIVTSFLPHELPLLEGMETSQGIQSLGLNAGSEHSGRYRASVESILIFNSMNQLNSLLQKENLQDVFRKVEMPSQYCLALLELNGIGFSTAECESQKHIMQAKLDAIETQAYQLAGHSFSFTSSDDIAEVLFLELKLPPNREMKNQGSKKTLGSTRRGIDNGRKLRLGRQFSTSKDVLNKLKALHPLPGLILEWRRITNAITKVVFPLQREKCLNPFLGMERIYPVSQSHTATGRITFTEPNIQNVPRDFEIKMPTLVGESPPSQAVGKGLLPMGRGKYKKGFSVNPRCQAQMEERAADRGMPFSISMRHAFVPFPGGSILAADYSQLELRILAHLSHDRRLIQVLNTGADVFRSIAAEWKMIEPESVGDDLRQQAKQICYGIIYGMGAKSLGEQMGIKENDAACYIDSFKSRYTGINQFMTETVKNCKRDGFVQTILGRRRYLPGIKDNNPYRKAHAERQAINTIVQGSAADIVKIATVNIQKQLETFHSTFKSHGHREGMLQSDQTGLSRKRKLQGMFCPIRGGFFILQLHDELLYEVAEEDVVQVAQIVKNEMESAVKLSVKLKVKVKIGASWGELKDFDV
Protocol: For the MMEJ in vitro assay in the presence of RTx-161, 10 nM Polθ-pol was first mixed with DMSO (3% final concentration) or RTx-161 at indicated final concentrations 4–500 nM in reaction buffer (25 mM Tris-HCl pH 7.5, 10 mM MgCl2, 10% glycerol, 0.1 mg/mL BSA, 0,01% IGEPAL CA-630, 1 mM DTT) followed by incubation for 5 min at room temperature. MMEJ reactions were started by the addition of 50 μM dNTP and 25 nM 5’-^32P radiolabeled pssDNA (RP343/^32P-RP344), incubated for 15 min at 37 °C, stopped by the addition of denaturing formamide loading buffer with 50 mM EDTA, resolved in denaturing 20% PAGE and analyzed using Typhoon PhosphorImager (GE Amersham). Quantification was performed using ImageQuant TL software. For the MMEJ in vitro assay in the presence of MC160385, 0.2–10 μM MC160385, 10 nM Polθ-pol, 60 nM 5’-^32P radiolabeled pssDNA and 100 μM dNTPs were used. The reaction was performed as above and stopped by the Proteinase K treatment in 50 mM EDTA and 0.5% SDS. The products were resolved in native 12% PAGE at room temp and analyzed as above.

CN(C(=O)Oc1c(N2CCN(CCO)C2=O)cc(C(F)(F)F)cc1C(F)(F)F)c1ccc(F)cc1 [RTx-161]
% Full Extension (Polγ; Pol Gamma): 81.33% | % Inhibition Compared to Control (Polγ; Pol Gamma): 1.34% | % Relative Maximum Extension (Polγ; Pol Gamma): 98.66% | inhibition of primer extension (Polγ; selectivity panel): no inhibition | inhibition of Polθ-pol MMEJ activity in vitro (Polθ-pol): concentration dependent inhibition

CN(C(=O)Oc1ccc(C(F)(F)F)cc1C(F)(F)F)c1ccc(F)cc1 [MC160385]
inhibition of Polθ-pol MMEJ activity in vitro (Polθ-pol): substantial Polθ-pol MMEJ inhibition
